Experimental data taken from patent US4277478A, “Antibiotic and use thereof” (priority 1975, dated 1981).

Experiments:
Salmonella typhimurium = assay: serial dilution test, MIC, Salmonella typhimurium; assay type: cell-based; details: Salmonella enterica, 37°, Gram-negative
Text: (§1) The components display the following Rf values in a thin layer chromatogram on silica gel plates from Messrs. Merck (silica gel 60, F254): in chloroform/methanol (9:1): X=0.58; I=0.81; in benzene/methanol (9:1): X=0.26; I=0.30; in chloroform/acetone (5:5): X=0.40; I=0.53; and in benzene/acetone (5:5): X=0.47; I=0.74. In a serial dilution test the following minimum inhibitory concentrations (MIC) were found for Lysolipin I: […]

Candida albicans = assay: activity against yeast-like fungi, Candida albicans; assay type: cell-based
Candida lipolytica = assay: activity against yeast-like fungi, Candida lipolytica; assay type: cell-based
Saccaromyces cerevisiae = assay: activity against yeast-like fungi, Saccaromyces cerevisiae; assay type: cell-based
microbial cells = assay: activity against growing and dormant microbial cells and sphaeroplasts; assay type: cell-based; details: both growing and dormant cells
solubility = assay type: physicochemical
[1] = titration / microtitration (pK); assay type: physicochemical
Text: (OCH3 : determination according to the method of Zeisel). Molecular weight, determined by vapour pressure osmometry in ethyl acetate; found 536. Microtitration with 0.1 N tetramethylammonium hydroxide in methylcellosolve/water (8:2): found pK^xMCS 9.72, equivalent weight 545. Titration with 0.1 N HCl; no step (N atom therefore not basic).

Micro-organisms = assay: MIC of Lysolipin X compared with Lysolipin I, serial dilution test; assay type: cell-based; details: Lysolipin X relative to Lysolipin I
Text: as §1

[2] = stability / conversion of Lysolipin X into Lysolipin I; assay type: physicochemical
Protocol: Lysolipin X was obtained as a colourless amorphous powder. […] The almost colourless amorphous powder thus obtained, that is to say Lysolipin X, can be crystallized from methanol; on heating the crystals undergo modification at 200° and melt at 260° C.
The pure product so obtained is stable in the absence of light and acid. In a thin layer chromatogram on silica gel in the system chloroform/methanol (39:1), Rf=0.22 (Rf of Lysolipin I=0.39). […] The signals at 0.9 and 1.3 ppm are probably to be ascribed to a fatty impurity. However, most of the signals in the range from 3 to 8 ppm are very similar to those of Lysolipin I and point to the close relationship between the two compounds.
On analogous working up, fractions 76-100 give an almost colourless amorphous powder (393 mg), which is Lysolipin X and cannot be purified by crystallisation. See FIGS. 7 and 8 for the NMR spectrum and the UV spectrum. On thin layer chromatography on silica gel in chloroform/methanol (39:1), Rf=0.22 (compared with 0.39 for Lysolipin I). On the thin layer plate, the spot for Lysolipin X, which is initially very pale and scarcely discernible, becomes deep yellow on standing in the air and, more rapidly, on warming.

Row | SMILES | MIC (Salmonella typhimurium) | activity against yeast-like fungi (Candida albicans) | activity against yeast-like fungi (Candida lipolytica) | activity against yeast-like fungi (Saccaromyces cerevisiae) | activity against growing and dormant microbial cells and their sphaeroplasts (microbial cells) | solubility in organic solvents (solubility; acetone, dimethylformamide, dimethylsulphoxide, ethyl acetate, hydrocarbons, halogenated hydrocarbons) | solubility in lower alkanols, ether and petroleum ether (solubility; methanol, ethanol, n-propanol, ether, petroleum ether) | solubility in water and aqueous acids and bases (solubility; water and aqueous acids and bases) | titration with HCl ([1]; 0.1 N HCl, N atom therefore not basic) | pKa ([1]; microtitration with 0.1 N tetramethylammonium hydroxide in methylcellosolve/water (8:2), read-out: pK^xMCS) | factor by which the MIC is higher (Micro-organisms) | stability to acid in solvent ([2]; chloroform or methanol with formic, acetic, hydrochloric or sulfuric acid) | stability on heating or irradiation with UV light ([2]; especially in the presence of catalytic amounts of acids) | stability of impure material ([2]; impure) | stability on storage ([2]; impure, stored in the air, unprotected from light, room temperature or higher) | stability of pure product ([2]; in the absence of light and acid) | stability on thin layer plate ([2]; silica gel plate, standing in the air, more rapidly on warming)
1 | COc1c(Cl)ccc2c(=O)c3c(O)c4c5c(c3oc12)OCOC5C(OC)c1cc2c(c(O)c1-4)C(=O)N(C)C(OC)C2O (stereo not drawn) [Lysolipin I] | > 100 µg/mL | display an activity | display an activity | display an activity | active | readily soluble | partially soluble | virtually insoluble | no step | 9.72 | – | – | – | – | – | – | –
2 | COc1c(Cl)ccc2c(=O)c3c(oc12)C1=C2C(OCO1)C(OC)c1cc4c(c(O)c1C2(O)C3O)C(=O)N(C)C(OC)C4O (stereo not drawn) [Lysolipin X] | – | display an activity | display an activity | display an activity | active | – | – | – | – | – | 10-50 | converted into Lysolipin I | forms Lysolipin I | unstable | gradually converted into Lysolipin I | stable | converted into Lysolipin I
